Common to all, as to assay type: cell-based
The target of one assay is T1, mTOR (Homo sapiens, UniProt P42345).
T1 construct: phosphorylation of the Akt protein at Ser473 (AKT lies downstream of PI3Kα in the signal transduction pathway) in the MDA-MB-468 cells; endogenous in cells; host or cells: MDA-MB-468 cells (ATCC HTB 132)
Briefly: mTOR cellular potency assay (phospho-AKT Ser473 in MDA-MB-468 cells). The conditions noted are these: MDA-MB-468 cells, 2 h, phospho-AKT Ser473; Table 2; read-out: Assay d) mTOR Cell IC50. An excerpt:
The following assays were used to measure the effects of the compounds of the present invention: a) ATM cellular potency assay; b) PI3K cellular potency assay; c) mTOR cellular potency assay; d) ATR cellular potency assay. During the description of the assays, generally: • i. The following abbreviations have been used: 4NQO=4-Nitroquinoline N-oxide; Ab=Antibody; BSA=Bovine Serum Albumin; CO2=Carbon Dioxide; DMEM=Dulbecco's Modified Eagle Medium; DMSO=Dimethyl Sulphoxide; EDTA=Ethylenediaminetetraacetic Acid; EGTA=Ethylene Glycol Tetraacetic Acid; ELISA=Enzyme-linked Immunosorbent Assay; EMEM=Eagle's Minimal Essential Medium; FBS=Foetal Bovine Serum; h=H(s); HRP=Horseradish Peroxidase; i.p.=intraperitoneal; PBS=Phosphate buffered saline; PBST=Phosphate buffered saline/Tween; TRIS=Tris(Hydroxymethyl)aminomethane; MTS reagent: [3-(4,5-dimethylthiazol-2-yl)-5-(3-carboxymethoxyphenyl)-2-(4-sulfophenyl)-2H-tetrazolium, inner salt, and an electron coupling reagent (phenazine methosulfate) PMS; s.c. sub-cutaneously. • ii. IC50 values were calculated using a smart fitting model in Genedata.
This assay was used to measure mTOR inhibition in cells. The aim of the phospho-AKT cell based mechanism of action assay using the Acumen Explorer is to identify inhibitors of either PI3Kα or mTOR-Rictor (Rapamycin insensitive companion of mTOR). This is measured by any decrease in the phosphorylation of the Akt protein at Ser473 (AKT lies downstream of PI3Kα in the signal transduction pathway) in the MDA-MB-468 cells following treatment with compound.
MDA-MB-468 cells (human breast adenocarcinoma #ATCC HTB 132) were seeded at 1500 cells/well in 40 μl of DMEM containing 10% FBS and 1% glutamine into Greiner 384 well black flat-bottomed plates. Cell plates were incubated for 18 h in a 37° C. incubator before dosing with compounds of Formula (I) in 100% DMSO using acoustic dispensing. Compounds were dosed in a 12 point concentration range into a randomised plate map. Control wells were generated either by dosing of 100% DMSO (max signal) or addition of a reference compound (a PI3K-62 inhibitor) that completely eliminated the pAKT signal (min control). Plates were incubated at 37° C. for 2 h; cells were then fixed by the addition of […] of a 3.7% formaldehyde solution. After 30 minutes the plates were washed with PBS using a Tecan PW384 plate washer. Wells were blocked and cells permeabilised with the addition of 40 μl of PBS containing 0.5% Tween20 and 1% Marvel™ (dried milk powder) and incubated for 60 minutes at r.t. The plates were washed with PBS containing 0.5% (v/v) Tween20 and 20 μl rabbit anti-phospho AKT Ser473 (Cell Signalling Technologies, #3787) in same PBS-Tween+1% MarvelTM was added and incubated overnight at 4° C.
Plates were washed 3 times with PBS+0.05% Tween 20 using a Tecan PW384. 20 μl of secondary antibody Alexa Fluor 488 anti-Rabbit (Molecular Probes, # A11008) diluted in PBS+0.05% Tween20 containing 1% Marvel™ was added to each well and incubated for 1 h at r.t. Plates were washed three times as before then 20 μl PBS added to each well and plates sealed with a black plate sealer.
The plates were read on an Acumen plate reader as soon as possible, measuring green fluorescence after excitation with 488 nm laser. Using this system IC50 values were generated and quality of plates was determined by control wells. Reference compounds were run each time to monitor assay performance.

Another assay addresses T2, ATM (Homo sapiens, UniProt Q13315).
T2 construct: endogenous in cells; host or cells: HT29 cells (ECACC #85061109)
Briefly: ATM cellular potency assay (pATM Ser1981 in irradiated HT29 cells). The conditions noted are these: 1 h compound, X-ray irradiation, pATM (Ser1981); Table 2; read-out: Assay a) ATM Cell IC50.

For another assay, the target named is T3, ATR (Homo sapiens, UniProt Q13535).
T3 construct: endogenous in cells; host or cells: HT29 cells (ECACC #85061109)
The assay is described as follows: ATR cellular potency assay (pChk1 Ser345 in HT29 cells after 4NQO). The conditions noted are these: pChk1 (Ser 345); Table 2; read-out: Assay b) ATR Cell IC50.

T3 sequence (Q13535 whole entry): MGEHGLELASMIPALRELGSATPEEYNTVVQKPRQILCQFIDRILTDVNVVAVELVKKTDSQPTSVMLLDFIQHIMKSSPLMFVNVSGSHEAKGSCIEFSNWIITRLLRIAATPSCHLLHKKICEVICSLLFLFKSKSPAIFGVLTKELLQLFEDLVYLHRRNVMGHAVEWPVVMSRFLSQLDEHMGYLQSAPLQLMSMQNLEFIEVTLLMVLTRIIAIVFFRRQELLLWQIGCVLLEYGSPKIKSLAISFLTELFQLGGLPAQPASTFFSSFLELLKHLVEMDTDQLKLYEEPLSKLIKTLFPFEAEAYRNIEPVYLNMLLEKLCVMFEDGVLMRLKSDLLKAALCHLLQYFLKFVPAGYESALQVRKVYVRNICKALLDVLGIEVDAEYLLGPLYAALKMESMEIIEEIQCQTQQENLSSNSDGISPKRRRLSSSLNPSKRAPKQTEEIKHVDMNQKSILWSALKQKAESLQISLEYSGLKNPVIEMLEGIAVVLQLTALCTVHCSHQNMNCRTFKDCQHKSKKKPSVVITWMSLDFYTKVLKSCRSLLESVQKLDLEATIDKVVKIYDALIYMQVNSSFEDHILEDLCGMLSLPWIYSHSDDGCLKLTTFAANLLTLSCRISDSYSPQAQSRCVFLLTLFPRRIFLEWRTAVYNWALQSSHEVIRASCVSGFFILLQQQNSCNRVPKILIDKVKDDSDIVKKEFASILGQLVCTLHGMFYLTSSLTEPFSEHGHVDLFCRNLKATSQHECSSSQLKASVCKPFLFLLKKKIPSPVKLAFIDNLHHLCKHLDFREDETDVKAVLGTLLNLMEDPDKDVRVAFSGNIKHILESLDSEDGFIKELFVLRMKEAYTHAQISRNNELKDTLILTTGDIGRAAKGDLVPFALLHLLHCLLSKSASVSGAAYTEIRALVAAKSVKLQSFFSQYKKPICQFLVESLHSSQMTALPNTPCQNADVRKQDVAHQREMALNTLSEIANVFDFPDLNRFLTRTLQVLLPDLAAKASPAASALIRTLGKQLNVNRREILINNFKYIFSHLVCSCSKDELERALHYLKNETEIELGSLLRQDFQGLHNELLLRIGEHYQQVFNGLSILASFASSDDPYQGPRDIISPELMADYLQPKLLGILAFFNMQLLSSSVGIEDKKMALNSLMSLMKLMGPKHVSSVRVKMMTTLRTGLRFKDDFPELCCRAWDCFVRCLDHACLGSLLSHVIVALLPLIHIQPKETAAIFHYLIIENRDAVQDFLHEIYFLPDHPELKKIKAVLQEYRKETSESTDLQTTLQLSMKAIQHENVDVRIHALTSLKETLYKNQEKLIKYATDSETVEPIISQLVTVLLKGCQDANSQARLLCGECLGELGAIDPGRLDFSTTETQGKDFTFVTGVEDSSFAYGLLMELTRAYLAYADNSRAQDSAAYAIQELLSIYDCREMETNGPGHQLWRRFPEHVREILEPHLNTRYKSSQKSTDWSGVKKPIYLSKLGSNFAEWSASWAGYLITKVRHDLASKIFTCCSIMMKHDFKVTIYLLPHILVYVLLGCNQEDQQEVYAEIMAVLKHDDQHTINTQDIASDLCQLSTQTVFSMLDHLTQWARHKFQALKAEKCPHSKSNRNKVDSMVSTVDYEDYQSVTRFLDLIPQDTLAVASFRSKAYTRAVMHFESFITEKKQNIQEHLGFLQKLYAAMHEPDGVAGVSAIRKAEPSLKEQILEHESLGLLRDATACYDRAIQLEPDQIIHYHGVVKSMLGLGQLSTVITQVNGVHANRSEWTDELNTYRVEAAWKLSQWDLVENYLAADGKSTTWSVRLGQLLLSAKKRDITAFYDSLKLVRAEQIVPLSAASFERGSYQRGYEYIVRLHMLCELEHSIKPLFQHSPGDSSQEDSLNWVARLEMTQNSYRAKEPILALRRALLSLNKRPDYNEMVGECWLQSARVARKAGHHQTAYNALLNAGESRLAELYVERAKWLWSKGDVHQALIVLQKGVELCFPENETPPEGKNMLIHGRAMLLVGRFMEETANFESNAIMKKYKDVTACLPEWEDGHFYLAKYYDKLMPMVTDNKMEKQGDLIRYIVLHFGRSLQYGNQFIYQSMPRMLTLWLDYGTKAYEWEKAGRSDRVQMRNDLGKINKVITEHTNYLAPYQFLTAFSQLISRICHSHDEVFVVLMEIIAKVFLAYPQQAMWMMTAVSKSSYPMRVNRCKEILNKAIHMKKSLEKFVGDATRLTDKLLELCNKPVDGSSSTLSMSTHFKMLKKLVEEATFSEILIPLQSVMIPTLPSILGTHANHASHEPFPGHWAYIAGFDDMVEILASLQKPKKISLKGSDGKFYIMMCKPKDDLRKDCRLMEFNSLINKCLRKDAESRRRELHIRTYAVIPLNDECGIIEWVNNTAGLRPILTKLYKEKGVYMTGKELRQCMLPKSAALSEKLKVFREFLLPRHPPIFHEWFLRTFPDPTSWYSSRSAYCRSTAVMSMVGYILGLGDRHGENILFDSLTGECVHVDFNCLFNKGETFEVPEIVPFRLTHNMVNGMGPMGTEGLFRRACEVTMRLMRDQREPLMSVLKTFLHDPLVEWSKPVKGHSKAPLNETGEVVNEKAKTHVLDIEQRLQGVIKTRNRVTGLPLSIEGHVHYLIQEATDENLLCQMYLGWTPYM
T3 sequence (Q8WXE1 whole entry partner): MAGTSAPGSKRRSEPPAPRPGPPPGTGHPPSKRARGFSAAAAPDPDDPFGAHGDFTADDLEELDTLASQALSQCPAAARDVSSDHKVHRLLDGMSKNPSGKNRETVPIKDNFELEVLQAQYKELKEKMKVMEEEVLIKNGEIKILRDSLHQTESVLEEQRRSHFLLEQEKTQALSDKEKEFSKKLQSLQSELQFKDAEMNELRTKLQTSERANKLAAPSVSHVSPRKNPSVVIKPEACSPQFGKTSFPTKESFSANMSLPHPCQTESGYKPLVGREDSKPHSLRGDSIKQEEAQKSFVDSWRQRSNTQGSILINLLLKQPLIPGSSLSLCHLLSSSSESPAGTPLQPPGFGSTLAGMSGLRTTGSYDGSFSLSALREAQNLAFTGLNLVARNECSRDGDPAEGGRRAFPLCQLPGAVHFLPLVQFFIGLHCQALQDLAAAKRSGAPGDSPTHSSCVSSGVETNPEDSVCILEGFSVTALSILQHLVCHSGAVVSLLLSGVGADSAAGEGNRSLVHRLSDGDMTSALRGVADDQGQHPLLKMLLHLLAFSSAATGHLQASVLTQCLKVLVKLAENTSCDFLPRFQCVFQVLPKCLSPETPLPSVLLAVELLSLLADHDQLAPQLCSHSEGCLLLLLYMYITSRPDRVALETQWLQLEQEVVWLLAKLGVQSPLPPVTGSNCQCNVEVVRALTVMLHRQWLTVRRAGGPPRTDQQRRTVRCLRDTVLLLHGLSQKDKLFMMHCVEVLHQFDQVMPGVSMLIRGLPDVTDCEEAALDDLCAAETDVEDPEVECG

The term IC50 denotes the concentration needed to halve the response being measured. On to `CN(C)C1CCN(c2ccc(-c3cc4c(cc3F)ncc3c4n([C@@H]4CCCOC4)c(=O)n3C)cn2)CC1` [Example 40, 8-[6-[4-(dimethylamino)-1-piperidyl]-3-pyridyl]-7-fluoro-3-methyl-1-[(3R)-tetrahydropyran-3-yl]imidazo[4,5-c]quinolin-2-one], for which the IC50 is 22100 nM at mTOR, 3.24 nM at ATM and greater than 30000 nM at ATR.

On to `CN(C)C1CCN(c2ccc(-c3ccc4ncc5c(c4c3)n([C@@H]3CCCOC3)c(=O)n5C)cn2)CC1` [Example 34, 8-[6-[4-(dimethylamino)-1-piperidyl]-3-pyridyl]-3-methyl-1-[(3R)-tetrahydropyran-3-yl]imidazo[4,5-c]quinolin-2-one], for which the half-inhibitory concentration (IC50) at mTOR is 2000 nM; on ATM, 0.395 nM; at ATR it was greater than 30000 nM.

For `CN(C)C1CCN(c2ccc(-c3ccc4ncc5c(c4c3)n([C@H]3CCCOC3)c(=O)n5C)cn2)CC1` [Example 35, 8-[6-[4-(dimethylamino)-1-piperidyl]-3-pyridyl]-3-methyl-1[(3S)-tetrahydropyran-3-yl]imidazo[4,5-c]quinolin-2-one], the values for the IC50 on mTOR, at ATM and at ATR were 16500 nM, 1.4 nM and greater than 30000 nM, respectively.

For the origin of these results see patent US20180280377A1, “Imidazo[4,5-c]quinolin-2-one Compounds and Their Use in Treating Cancer” (ASTRAZENECA AB, priority 2015, published 2018).
